The source of these data is ChEMBL document CHEMBL4808235, “Identification of 6-hydroxy-5-phenyl sulfonylpyrimidin-4(1H)-one APJ receptor agonists” (Bioorg Med Chem Lett, 2021).

In general, EC50 refers to the midpoint of the concentration-response curve. For orientation: Cmax means the peak of the concentration-time curve. The term AUC(0-t) denotes the area under the concentration-time curve up to a stated or last time point. One may read the half-life as how long it takes for the measured level to halve. Low values mean fast loss, high ones slow loss.

The structures appear in SMILES notation.

The target in the first data set is T1, Apelin receptor (Homo sapiens, UniProt P35414).
T1 sequence (P35414 whole entry): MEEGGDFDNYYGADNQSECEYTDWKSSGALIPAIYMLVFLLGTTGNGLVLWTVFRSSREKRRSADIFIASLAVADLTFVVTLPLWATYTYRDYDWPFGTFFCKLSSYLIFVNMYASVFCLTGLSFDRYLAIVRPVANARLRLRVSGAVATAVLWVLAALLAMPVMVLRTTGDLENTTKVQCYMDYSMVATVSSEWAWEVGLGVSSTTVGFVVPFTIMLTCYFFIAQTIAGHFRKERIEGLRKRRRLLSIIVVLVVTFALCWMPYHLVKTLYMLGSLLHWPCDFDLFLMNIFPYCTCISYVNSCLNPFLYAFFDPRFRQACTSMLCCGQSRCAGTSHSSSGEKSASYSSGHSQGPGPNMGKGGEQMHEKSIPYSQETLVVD
Put plainly: Agonist activity at human APJ receptor assessed as effect on cAMP accumulation by cAMP-Glo assay. Format: functional.
Settings: not given
As for `CCCCc1[nH]c(=O)c(S(=O)(=O)c2ccc(-n3cc(Cl)ccc3=O)cc2)c(O)c1-c1c(OC)cccc1OC`, the EC50 worked out at 0.03 nM.
Still for that read-out and setting: with `CCCCc1nc(=O)c(S(=O)(=O)c2ccc(-n3ccccc3=O)cc2)c(O)n1-c1c(OC)cccc1OC` the figure was 0.02 nM; with `CCCCc1nc(=O)c(S(=O)(=O)c2ccc(-c3ccnc(NC(=O)C4CC4)c3)cc2)c(O)n1-c1c(OC)cccc1OC`, 0.03 nM.
The same measure, in the same setting: then `CCCCc1nc(=O)c(S(=O)(=O)c2ccc(-c3cccnc3)cc2)c(O)n1-c1c(OC)cccc1OC`, with 0.04 nM.
Regarding `CCCCc1[nH]c(=O)c(S(=O)(=O)c2ccc(-c3ccc(F)nc3)cc2)c(O)c1-c1c(OC)cccc1OC`, the EC50 was found to be 0.7 nM.

Test system in another data set: not listed separately
Put plainly: Metabolic stability in rat liver microsomes assessed as parent compound remaining incubated for 10 mins in presence of NADPH. Format: ADME, Microsome. The settings on record: read-out: Stabilty.
For `CCCCc1[nH]c(=O)c(S(=O)(=O)c2ccc(-n3cc(Cl)ccc3=O)cc2)c(O)c1-c1c(OC)cccc1OC`, the remaining at 10 min is 72%.
With `CCCCc1nc(=O)c(S(=O)(=O)c2ccc(-n3ccccc3=O)cc2)c(O)n1-c1c(OC)cccc1OC`, the remaining at 10 min is 83%.
In the case of `CCCCc1nc(=O)c(S(=O)(=O)c2ccc(-c3ccnc(NC(=O)C4CC4)c3)cc2)c(O)n1-c1c(OC)cccc1OC`, the remaining at 10 min was 72%.
Same read-out and setting: with `CCCCc1nc(=O)c(S(=O)(=O)c2ccc(-c3cccnc3)cc2)c(O)n1-c1c(OC)cccc1OC` the figure was 3%.

Test system in the next data set: not listed separately
In words: Permeability of the compound at pH 5.5 by PAMPA. Format: ADME. The settings on record: read-out: permeability. A general note: In PAMPA a lipid-coated filter parts donor from acceptor wells.
As to `CCCCc1[nH]c(=O)c(S(=O)(=O)c2ccc(-n3cc(Cl)ccc3=O)cc2)c(O)c1-c1c(OC)cccc1OC`, the Papp was 28.5 ×10⁻⁶ cm/s.
As to `CCCCc1nc(=O)c(S(=O)(=O)c2ccc(-n3ccccc3=O)cc2)c(O)n1-c1c(OC)cccc1OC`, the Papp worked out at 1.2 ×10⁻⁶ cm/s.
`CCCCc1nc(=O)c(S(=O)(=O)c2ccc(-c3ccnc(NC(=O)C4CC4)c3)cc2)c(O)n1-c1c(OC)cccc1OC`: the Papp came to 18.3 ×10⁻⁶ cm/s.
On the same count and under the same terms, with `CCCCc1nc(=O)c(S(=O)(=O)c2ccc(-c3cccnc3)cc2)c(O)n1-c1c(OC)cccc1OC` the figure was 20.2 ×10⁻⁶ cm/s.

Test system in a further data set: not listed separately
In words: Permeability of the compound at pH 7.4 by PAMPA. The conditions noted are these: read-out: permeability. Format: ADME.
Take `CCCCc1[nH]c(=O)c(S(=O)(=O)c2ccc(-n3cc(Cl)ccc3=O)cc2)c(O)c1-c1c(OC)cccc1OC`: the Papp came out at 2.2 ×10⁻⁶ cm/s.
Turning to `CCCCc1nc(=O)c(S(=O)(=O)c2ccc(-n3ccccc3=O)cc2)c(O)n1-c1c(OC)cccc1OC`, the Papp was 0.1 ×10⁻⁶ cm/s.
Same read-out and setting: then `CCCCc1nc(=O)c(S(=O)(=O)c2ccc(-c3ccnc(NC(=O)C4CC4)c3)cc2)c(O)n1-c1c(OC)cccc1OC`, with 1.1 ×10⁻⁶ cm/s; and `CCCCc1nc(=O)c(S(=O)(=O)c2ccc(-c3cccnc3)cc2)c(O)n1-c1c(OC)cccc1OC`, with 0.6 ×10⁻⁶ cm/s.

Test system in another data set: not listed separately
Put plainly: Metabolic stability in mouse liver microsomes assessed as parent compound remaining incubated for 10 mins in presence of NADPH. The conditions noted are these: read-out: Stabilty. Format: ADME, Microsome. For orientation: Microsomes from liver hold many membrane-bound enzymes, among them those of drug oxidation.
In the case of `CCCCc1[nH]c(=O)c(S(=O)(=O)c2ccc(-n3cc(Cl)ccc3=O)cc2)c(O)c1-c1c(OC)cccc1OC`, the remaining at 10 min was 64%.
Same read-out and setting: then `CCCCc1nc(=O)c(S(=O)(=O)c2ccc(-n3ccccc3=O)cc2)c(O)n1-c1c(OC)cccc1OC`, with 63%; and `CCCCc1nc(=O)c(S(=O)(=O)c2ccc(-c3ccnc(NC(=O)C4CC4)c3)cc2)c(O)n1-c1c(OC)cccc1OC`, with 72%; and `CCCCc1nc(=O)c(S(=O)(=O)c2ccc(-c3cccnc3)cc2)c(O)n1-c1c(OC)cccc1OC`, with 57%.

Test system in another data set: not listed separately
Put plainly: Cmax in rat at 1 mg/kg, po. The class given is ADME, organism-based. Further details: route oral, dose 1 mg/kg. The settings on record: in vivo.
Take `CCCCc1nc(=O)c(S(=O)(=O)c2ccc(-c3ccnc(NC(=O)C4CC4)c3)cc2)c(O)n1-c1c(OC)cccc1OC`: the Cmax came to 400 nM.

A further data set has as its target T2, Apelin receptor (Mus musculus, UniProt Q9WV08).
T2 sequence (Q9WV08 whole entry): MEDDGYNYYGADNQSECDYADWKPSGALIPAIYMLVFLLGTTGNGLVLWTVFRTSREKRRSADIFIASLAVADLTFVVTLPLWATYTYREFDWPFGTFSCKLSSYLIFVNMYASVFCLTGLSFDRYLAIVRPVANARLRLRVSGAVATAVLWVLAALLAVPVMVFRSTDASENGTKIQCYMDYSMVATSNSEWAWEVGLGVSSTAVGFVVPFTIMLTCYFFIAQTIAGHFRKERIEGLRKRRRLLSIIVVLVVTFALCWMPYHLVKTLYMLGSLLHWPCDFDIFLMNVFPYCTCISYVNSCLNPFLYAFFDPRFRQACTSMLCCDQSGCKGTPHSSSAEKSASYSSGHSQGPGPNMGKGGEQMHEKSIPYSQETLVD
Put plainly: Agonist activity at mouse APJ receptor assessed as effect on cAMP accumulation by cAMP-Glo assay.
Settings: not given
(In general: Changes in cAMP serve as a functional read-out for many G protein-coupled receptors.)
As for `CCCCc1[nH]c(=O)c(S(=O)(=O)c2ccc(-n3cc(Cl)ccc3=O)cc2)c(O)c1-c1c(OC)cccc1OC`, the 50% effective concentration (EC50) is 0.1 nM.
Still for that read-out and setting: then `CCCCc1nc(=O)c(S(=O)(=O)c2ccc(-n3ccccc3=O)cc2)c(O)n1-c1c(OC)cccc1OC`, with 0.03 nM; and `CCCCc1nc(=O)c(S(=O)(=O)c2ccc(-c3ccnc(NC(=O)C4CC4)c3)cc2)c(O)n1-c1c(OC)cccc1OC`, with 0.04 nM.
Same read-out and setting: then `CCCCc1nc(=O)c(S(=O)(=O)c2ccc(-c3cccnc3)cc2)c(O)n1-c1c(OC)cccc1OC`, with 0.05 nM; and `CCCCc1[nH]c(=O)c(S(=O)(=O)c2ccc(-c3ccc(F)nc3)cc2)c(O)c1-c1c(OC)cccc1OC`, with 5 nM.

Test system in a further data set: not listed separately
In words: AUC (0 to 24 hrs) in rat at 1 mg/kg, po. Format: ADME, organism-based. Further details: time < 24 hr, route oral, dose 1 mg/kg. The conditions noted are these: in vivo.
In the case of `CCCCc1nc(=O)c(S(=O)(=O)c2ccc(-c3ccnc(NC(=O)C4CC4)c3)cc2)c(O)n1-c1c(OC)cccc1OC`, the AUC(0-t) at 24 h was 0.6 µM·h.

Test system in another data set: not listed separately
In words: Metabolic stability in human liver microsomes assessed as parent compound remaining incubated for 10 mins in presence of NADPH. The class given is ADME, Microsome. The conditions noted are these: read-out: Stabilty.
As to `CCCCc1[nH]c(=O)c(S(=O)(=O)c2ccc(-n3cc(Cl)ccc3=O)cc2)c(O)c1-c1c(OC)cccc1OC`, the remaining at 10 min is 97%.
Still for that read-out and setting: then `CCCCc1nc(=O)c(S(=O)(=O)c2ccc(-n3ccccc3=O)cc2)c(O)n1-c1c(OC)cccc1OC`, with 87%; and `CCCCc1nc(=O)c(S(=O)(=O)c2ccc(-c3ccnc(NC(=O)C4CC4)c3)cc2)c(O)n1-c1c(OC)cccc1OC`, with 84%; and `CCCCc1nc(=O)c(S(=O)(=O)c2ccc(-c3cccnc3)cc2)c(O)n1-c1c(OC)cccc1OC`, with 88%.

Another data set addresses T3, Apelin receptor (Rattus norvegicus, UniProt Q9JHG3).
T3 sequence (Q9JHG3 whole entry): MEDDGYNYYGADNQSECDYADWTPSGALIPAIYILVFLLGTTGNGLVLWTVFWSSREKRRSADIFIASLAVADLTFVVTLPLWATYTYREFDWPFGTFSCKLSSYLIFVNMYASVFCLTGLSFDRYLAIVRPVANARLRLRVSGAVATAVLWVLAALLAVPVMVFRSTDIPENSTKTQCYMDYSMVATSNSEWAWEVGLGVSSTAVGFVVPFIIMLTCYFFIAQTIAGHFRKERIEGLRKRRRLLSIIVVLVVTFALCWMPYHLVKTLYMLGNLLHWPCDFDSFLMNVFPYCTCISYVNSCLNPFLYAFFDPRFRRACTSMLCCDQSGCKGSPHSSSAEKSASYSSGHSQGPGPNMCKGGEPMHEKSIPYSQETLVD
In words: Agonist activity at rat APJ receptor assessed as effect on cAMP accumulation by cAMP-Glo assay. The class given is functional.
Settings: not given
For `CCCCc1[nH]c(=O)c(S(=O)(=O)c2ccc(-n3cc(Cl)ccc3=O)cc2)c(O)c1-c1c(OC)cccc1OC`, the EC50 was determined as 0.2 nM.
Turning to `CCCCc1nc(=O)c(S(=O)(=O)c2ccc(-c3ccnc(NC(=O)C4CC4)c3)cc2)c(O)n1-c1c(OC)cccc1OC`, the 50% effective concentration (EC50) stood at 0.04 nM.
As for `CCCCc1nc(=O)c(S(=O)(=O)c2ccc(-c3cccnc3)cc2)c(O)n1-c1c(OC)cccc1OC`, the EC50 came out at 0.05 nM.
Consider `CCCCc1[nH]c(=O)c(S(=O)(=O)c2ccc(-c3ccc(F)nc3)cc2)c(O)c1-c1c(OC)cccc1OC`, for which the half-maximal effective concentration (EC50) stood at 12 nM.

Test system in the next data set: not listed separately
In words: Half life in rat at 1 mg/kg, po. Format: ADME, organism-based. The conditions noted are these: in vivo.
`CCCCc1nc(=O)c(S(=O)(=O)c2ccc(-c3ccnc(NC(=O)C4CC4)c3)cc2)c(O)n1-c1c(OC)cccc1OC` showed a half-life of 1.3 h.
